Laboratory results as given in paper PMC11484942, “Rumicidins are a family of mammalian host-defense peptides plugging the 70S ribosome exit tunnel” (Nature Communications, 2024).
Ends that are not written are not given here.

What was measured:
[1] = system: E. coli BL21 (DE3) Star cell extract; assay: Cell-free protein synthesis (coupled transcription/translation) of EGFP; assay type: biochemical, Escherichia coli; conditions: minimum concentration that provides >90% inhibition of the EGFP synthesis in the CFPS system
Experimental: To investigate the effects of AMPs and antibiotics on the coupled transcription/translation process, the test compounds were added to a cell-free protein synthesis (CFPS) reaction mix with a plasmid encoding enhanced green fluorescent protein (EGFP) variant (F64L, S65T, Q80R, F99S, M153T, and V163A) under control of the T7 promoter. The cell lysate was prepared using the E. coli BL21 Star (DE3) overexpressed T7 RNA polymerase as described previously. The reaction mix consisted of the following components: 1.2 mM ATP, 0.8 mM UTP, 0.8 mM GTP, 0.8 mM CTP, 2 mM of each of 20 proteinogenic amino acids, 1.5 mM spermidine, 1 mM putrescine dihydrochloride, 0.06647 mM calcium folinate, […] tRNA from the E. coli MRE 600 strain, 0.33 mM NAD, 120 mM HEPES-KOH (pH 8.0), 10 mM ammonium glutamate, 175 mM potassium glutamate, 60 mM glucose, 15 mM magnesium glutamate, 2% PEG 8000, 25% E. coli BL21 Star (DE3) cell lysate, 1 ng/ml plasmid DNA. The reaction volume was 50 µL. The peptides were dissolved in PBS with the addition of 0.1% BSA. Erythromycin was used in the positive control reactions. The fluorescence of the sample without inhibitor was set as the 100% value. The reaction proceeded for 2 h in 96-well v-bottom black polystyrene microplates (Eppendorf #0030601904) in a plate shaker (30 °C, 1000 rpm). The fluorescence of the synthesized EGFP was measured with the microplate reader AF2200 (λEx = 488 nm, λEm = 510 nm; Eppendorf). The experimental data were obtained from at least two independent experiments performed in triplicate. Non-linear regression curves were generated using GraphPad Prism v.8.0.1 (GraphPad Software Inc.).

[2] = system: ribosome on ermCL / RST1 mRNA; assay: Toe-printing (primer-extension inhibition) in PURExpress system; assay type: biochemical; conditions: 5 µM
Experimental: Toe-print analysis was performed as previously described[20] on two matrices: ErmCL and RST1. Briefly, the PURExpress system (NEB) was used for transcription and subsequent translation, then a reverse transcription reaction was performed. The ErmCL template was generated by PCR with two partially self-complementary oligonucleotides (Erm-F and Erm-R, Supplementary Table 8). […] oligonucleotide was used for reverse transcription. RST1 template was prepared as previously described[58] using PCR primers (T7fwd and NV1). Concentrations of tested compounds in toe-print were 0.5, 5, or 50 μM. 1% (v/v) DMSO water solution was used as a negative control sample. Two independent experiments were performed using both matrices, and the observed effects were the same.

E. coli BW25113 = assay: MIC broth microdilution; assay type: cell-based, Escherichia coli
Experimental: (§1) The reduction of resazurin to resorufin was recorded.

E. coli ML-35p = assay: Cytoplasmic membrane permeability assay (ONPG); assay type: cell-based, Escherichia coli; conditions: 4 h exposure, 10 mM NaPB pH 7.4 + 0.9% NaCl, melittin = 100%, mean of two experiments
Experimental: To examine the ability of the peptides to affect the barrier function of outer and inner membranes of Gram-negative bacteria, we slightly modified the previously described procedure[22] with the use of the E. coli ML-35p strain constitutively expressing cytoplasmic β-galactosidase but lacking lactose permease, and also containing β-lactamase in the periplasmic space. The state of the E. coli ML-35p outer and cytoplasmic membranes was assessed based on their permeability to chromogenic markers nitrocefin (Calbiochem) and o-nitrophenyl-β-D-galactopyranoside (ONPG, AppliChem) which are the β-lactamase and β-galactosidase substrates, respectively. The cells were incubated in the trypticase soy broth (TSB) for 16 h at 37 °C, washed three times with phosphate-buffered saline (PBS, pH 7.4) to remove residual growth media, adjusted to the concentration of 2.5 × 10^8 CFU/mL, and stored on ice until used. Experiments were performed in 10 mM sodium phosphate buffer (NaPB, pH 7.4) with or without the addition of 0.9% NaCl and/or a mixture of divalent cations (0.5 mM CaCl2 and 0.5 mM MgSO4). The final concentration of E. coli ML-35p cells was of 2.5 × 10^7 CFU/mL. The concentrations of ONPG and nitrocefin were of 2.5 mM and 20 µM, respectively. Peptide samples were placed in the wells of a 96-well flat-bottom polystyrene microplate, and optical density of the solution enhanced due to an appearance of the hydrolyzed nitrocefin or ONPG and was measured at 492 and 405 nm, respectively, using a microplate reader AF2200. The final volume in each well was 200 µL. Assays were performed at 37 °C under stirring at 500 rpm. Control experiments were performed under the same conditions without adding a peptide. Two independent experiments were performed, and the curve pattern was the same.

mycobacteria = conditions: cited from earlier work
Excerpt: To estimate the therapeutic potential of rumicidins as candidate compounds for combating bacterial infections, we assessed their antimicrobial activity against a wide panel of strains. As expected, antibacterial activities of rumicidins, like those of known PrAMPs, decreased in most cases in the presence of salt, which might inhibit the adsorption of the peptides to the bacterial surface. Besides, their activities against Gram-negative bacteria deficient in SbmA protein (Pseudomonas aeruginosa and Proteus mirabilis) were also less pronounced. Amon ...

[3] = system: E. coli 1057 R2 (rpoS^Q3stop, macB^N470D); conditions: MHB + 0.9% NaCl
Experimental: Minimum inhibitory concentrations (MIC) were determined by broth microdilution assay based on Clinical and Laboratory Standards Institute (CLSI) guidelines using BSA in the growth medium to minimize AMP nonspecific adsorption. Bacterial test cultures were grown in the Mueller-Hinton broth (MHB, Sigma) at 37 °C to mid-log phase and then diluted with the 2× MH medium supplemented with 1.8% NaCl (or without salt) so that to reach a final cell concentration of 10^6 CFU/mL. 50 µL of the obtained bacterial suspension were added to aliquots of 50 µL of the peptide solutions serially diluted with sterilized 0.1% bovine serum albumin (BSA) in 96-well flat-bottom polystyrene microplates (Eppendorf #0030730011). […] To verify MIC values, the respiratory activity of the bacteria was determined. Briefly, 5 µL of 0.5 mg/mL resazurin (Sigma) was added to the wells after 24 h (or after 48 h for M. smegmatis) of incubation, and the plate was incubated for additional 3 h. In some cases, MICs were determined in the Lysogeny Broth (LB) or Middlebrook 7H9 medium. The reduction of resazurin to resorufin was recorded. […] The results were expressed as the median values determined based on at least three independent experiments performed in triplicate.
Resistance induction experiments were performed using the previously described method. This approach allows for monitoring MIC values after each transfer. Briefly, on the first day, the overnight culture of the wild-type bacteria was diluted with the 2× MHB supplemented with 1.8% NaCl (or without salt) to reach a final cell concentration of 10^6 CFU/mL. 50 µL of the obtained bacterial suspension were added to aliquots of 50 µL of the peptide solutions serially diluted with the sterilized 0.1% BSA in 96-well flat-bottom polystyrene microplates. After incubation for 20 ± 2 h at 37 °C and 950 rpm, MICs were determined as described above. For each subsequent daily transfer, 2–4 μL of the inoculum taken from the first well containing a sub-inhibitory drug concentration was diluted with 2 mL of the fresh 2× MHB supplemented with 1.8% NaCl (or without salt). […] Multiple repeated passages in the presence of antimicrobial agents were performed for each bacterial strain during the experiment. Bacteria that grew at the highest concentrations of AMPs on the final day were passaged further 3 times on drug-free agar plates before determining the final MIC value.

S. aureus ATCC 29213 = assay type: cell-based, Staphylococcus aureus; conditions: ATCC 29213, 24 h
Experimental: as §1

[4] = system: Mycobacterium smegmatis mc(2)155; assay type: cell-based; conditions: Mycobacterium mc(2)155, 24 h
Experimental: as §1

panel of tested strains = conditions: over all tested strains of Fig. 6a
Experimental: Minimum inhibitory concentrations (MIC) were determined by broth microdilution assay based on Clinical and Laboratory Standards Institute (CLSI) guidelines using BSA in the growth medium to minimize AMP nonspecific adsorption[49]. Bacterial test cultures were grown in the Mueller-Hinton broth (MHB, Sigma) at 37 °C to mid-log phase and then diluted with the 2× MH medium supplemented with 1.8% NaCl (or without salt) so that to reach a final cell concentration of 10^6 CFU/mL. 50 µL of the obtained bacterial suspension were added to aliquots of 50 µL of the peptide solutions serially diluted with sterilized 0.1% bovine serum albumin (BSA) in 96-well flat-bottom polystyrene microplates (Eppendorf #0030730011). […] To verify MIC values, the respiratory activity of the bacteria was determined. Briefly, 5 µL of 0.5 mg/mL resazurin (Sigma) was added to the wells after 24 h (or after 48 h for M. smegmatis) of incubation, and the plate was incubated for additional 3 h. In some cases, MICs were determined in the Lysogeny Broth (LB) or Middlebrook 7H9 medium. The reduction of resazurin to resorufin was recorded. […] The results were expressed as the median values determined based on at least three independent experiments performed in triplicate.

E. coli ATCC 25922 = assay type: cell-based, Escherichia coli; conditions: ATCC 25922, 24 h
Experimental: as §1

E. cloacae XDR CI 4172 = assay type: cell-based, Enterobacter cloacae; conditions: XDR CI 4172, 24 h
Experimental: as §1

[5] = system: human red blood cells (hRBC); assay: Hemolysis (hemoglobin release assay); assay type: cell-based; conditions: mean
Experimental: (§2) Hemolytic activity of the peptides was tested against the fresh suspension of human red blood cells (hRBC) using the hemoglobin release assay as described previously. Two experiments were performed with the hRBC from blood samples collected from healthy donors by certified medical personnel upon informed written consent. All procedures were approved by the Ethics Committee of the Institute of Experimental Medicine (protocol 1/20 of 2/27/2020) and comply with the ethical principles of the Declaration of Helsinki. The quantitative data were represented as average means with standard deviations. The colorimetric 3-(4,5-dimethylthiazol-2-yl)-2,5-diphenyltetrazolium bromide (MTT) dye reduction assay was used to determine cytotoxicity of the peptides against human keratinocyte cell line (HaCaT) and transformed human embryonic kidney cells (HEK293T). Both cell lines were purchased from American Type Culture Collection (ATCC). 10^4 cells per well in Dulbecco’s modified Eagle’s medium (DMEM/F12) supplemented with 10% fetal bovine serum (FBS, Invitrogen) were placed into 96-well plates and then cultured in the CO2-incubator (5% CO2, 37 °C). After the media were removed, the peptides were dissolved in 100 µL of the same medium and added to cell cultures at different final concentrations. 20 h later, 20 μL of MTT (5 mg/mL, Sigma) was added to each well, and the plates were incubated for 4 h at 37 °C. Then, the media were discarded and 100 µL DMSO-isopropanol mixture at a ratio of 1:1 (v/v) was added to each well to dissolve the crystallized formazan. The absorbance at 570 nm was measured by a microplate reader AF2200 (Eppendorf). An optical density in the wells containing cells cultured without the peptides was assumed to represent 100% cell viability. Two independent experiments were performed for each peptide.

[6] = system: HEK293T (transformed embryonic kidney cells); assay: MTT cytotoxicity; assay type: cell-based, human; conditions: mean
Experimental: as §2

HaCaT (keratinocytes) = assay: MTT cytotoxicity; assay type: cell-based, human
Experimental: as §2

P. aeruginosa ATCC 27853 = assay type: cell-based, Pseudomonas aeruginosa; conditions: ATCC 27853, 24 h
Experimental: as §1

M. luteus B-1314 = assay type: cell-based, Micrococcus luteus; conditions: B-1314, 24 h
Experimental: as §1

[7] = system: Proteus mirabilis XDR CI 3423; assay type: cell-based; conditions: XDR CI 3423, 24 h
Experimental: as §1

## KPRPPHRPRPRPRPWFPPRFP [Rum-1[9-29]]
[1]
  Protein synthesis inhibition: 4 µM
[2]
  toe-print result: strong AUG toe-print signal comparable to that of the wild-type peptide
E. coli BW25113; Mueller-Hinton broth + 0.9% NaCl, 24 h 37 °C, median of ≥3 experiments
  Minimum inhibitory concentration MHB + 0.9% NaCl: 32 µM
E. coli BW25113; Mueller-Hinton broth without salt, 24 h 37 °C, median of ≥3 experiments
  Minimum inhibitory concentration MHB: 8 µM
E. coli BW25113; N-terminal shortening
  fold change of MIC vs wild-type rumicidin-1: ≥ 4 fold
E. coli ML-35p; 4 µM
  permeabilized cells (ONPG hydrolysis, % of melittin): 0.080%
E. coli ML-35p; 16 µM
  permeabilized cells (ONPG hydrolysis, % of melittin): 1.213%
E. coli ML-35p; 64 µM
  permeabilized cells (ONPG hydrolysis, % of melittin): 3.493%

## PR-39
mycobacteria
  MIC: ~ 10 µM

## RIKIPRPPKPRRPHRPRPGRRRPWFPPRFP [Rumicidin-3]
[3]
  MIC: 4 µM
S. aureus ATCC 29213
  MIC S. aureus ATCC 29213: > 32 µM
[4]
  Minimum inhibitory concentration (MIC): 4 µM
Panel of tested strains
  median MIC: about 2 µM

## RRIRPRPPRLPRPRPRPLPFPR [Bac7[1-22]]
[3]
  MIC: 32 µM
E. coli ATCC 25922
  MIC E. coli ATCC 25922: 1 µM
E. cloacae XDR CI 4172
  MIC E. cloacae XDR CI 4172: 1 µM
S. aureus ATCC 29213
  MIC S. aureus ATCC 29213: > 32 µM
[5]; 0.25 µM
  Hemolysis: 0.017%
[5]; 0.5 µM
  Hemolysis: 0.093%
[5]; 1 µM
  Hemolysis: 0.134%
[5]; 2 µM
  Hemolysis: 0.206%
[5]; 4 µM
  Hemolysis: 0.371%
[5]; 8 µM
  Hemolysis: 0.43%
[5]; 16 µM
  Hemolysis: 0.525%
[5]; 32 µM
  Hemolysis: 0.835%
[5]; 64 µM
  Hemolysis: 1.043%
[6]; 1 µM
  HEK293T cell viability: 111.372%
[6]; 2 µM
  HEK293T cell viability: 111.629%
[6]; 4 µM
  HEK293T cell viability: 112.981%
[6]; 8 µM
  HEK293T cell viability: 107.36%
[6]; 16 µM
  HEK293T cell viability: 102.824%
[6]; 32 µM
  HEK293T cell viability: 100.41%
[6]; 64 µM
  HEK293T cell viability: 98.194%
HaCaT (keratinocytes); 1 µM
  HaCaT cell viability: 99.202%
HaCaT (keratinocytes); 2 µM
  HaCaT cell viability: 105.318%
HaCaT (keratinocytes); 4 µM
  HaCaT cell viability: 103.256%
HaCaT (keratinocytes); 8 µM
  HaCaT cell viability: 103.504%
HaCaT (keratinocytes); 16 µM
  HaCaT cell viability: 102.717%
HaCaT (keratinocytes); 32 µM
  HaCaT cell viability: 102.854%
HaCaT (keratinocytes); 64 µM
  HaCaT cell viability: 101.039%

## RRRPRPPYLPRPRPPPFFPPRL [PR-39[1-22]]
[3]
  MIC: 32 µM
P. aeruginosa ATCC 27853
  MIC P. aeruginosa ATCC 27853: > 32 µM
M. luteus B-1314
  MIC M. luteus B-1314: > 32 µM
S. aureus ATCC 29213
  MIC S. aureus ATCC 29213: > 32 µM
[4]
  MICs depending on the test medium: 8 to 16 µM
  Minimum inhibitory concentration (MIC): 8 µM
[7]
  MIC Proteus mirabilis XDR CI 3423: > 32 µM
